What was measured:
Assay in all cases: biochemical
Set-up in all cases: thermal shift assay (real-time PCR machine), melting temperature shift of recombinant bromodomains at 2 uM protein
ATAD2 = molecular target: T1, ATAD2 (Homo sapiens, UniProt Q6PL18)
T1 construct: bromodomain
Method: (§1) The recombinant bromodomains at 2 μM were mixed with 10 μM inhibitors. The assays and data evaluation for melting temperatures were performed using a Real-Time PCR Mx3005p machine (Stratagene) and the protocols previously described. Experiments profiling the final compound (PNZ5) were performed in quadruplicates. […] Since its discovery in our own labs, similar inhibitors have also been disclosed by researchers at Boehringer Ingelheim [reference: patent, WO 2014/154760 [31]]. The inhibitor contains two possible acetyl-lysine mimetic moieties. In order to obtain molecular insights on the interaction of the developed inhibitor, the crystal structure of the first bromodomain of BRD4 in complex with PNZ5 was solved at 1.85 Å (Figure 2C and Supplementary Table 4, 5FBX.pdb). The inhibitor, coordinating residues and water molecules were well defined by the electron density. The dimethylisoxazole moiety mimicked the acetyl lysine side chain and formed two canonical hydrogen-bond interactions with Asn140 and water mediated hydrogen-bond with Tyr 97 (Figure 2C). The common network of waters within the binding site was also conserved in the BRD4(1)-PNZ5 complex. The compound was further stabilized by lipophilic interactions with residues forming the binding site Leu92, Leu94, Ile146. The [compound left out] substituent was well accommodated next to the WPF shelf, as well as the N1-methyl substituent that formed hydrophobic interactions with Trp81. The carbonyl on the isoindolinone established a water-mediated hydrogen bond with Lys91.

BAZ1A = molecular target: T2, BAZ1A (Homo sapiens, UniProt Q9NRL2)
T2 construct: bromodomain
Method: as §1

BAZ1B = molecular target: T3, BAZ1B (Homo sapiens, UniProt Q9UIG0)
T3 construct: bromodomain
Method: as §1

BAZ2A = molecular target: T4, BAZ2A (Homo sapiens, UniProt Q9UIF9)
T4 construct: bromodomain
Method: as §1

BAZ2B = molecular target: T5, BAZ2B (Homo sapiens, UniProt Q9UIF8)
T5 construct: bromodomain
Method: as §1

[1] = molecular target: T6, BRD4(1), first bromodomain of BRD4 (Homo sapiens, UniProt O60885)
T6 construct: first bromodomain; BRD4_HUMAN O60884-1 fragment 44-168 (crystallography)
Method: as §1

BRPF3 = molecular target: T7, BRPF3 (Homo sapiens, UniProt Q9ULD4)
T7 construct: bromodomain
T7 sequence (Q9ULD4 whole entry): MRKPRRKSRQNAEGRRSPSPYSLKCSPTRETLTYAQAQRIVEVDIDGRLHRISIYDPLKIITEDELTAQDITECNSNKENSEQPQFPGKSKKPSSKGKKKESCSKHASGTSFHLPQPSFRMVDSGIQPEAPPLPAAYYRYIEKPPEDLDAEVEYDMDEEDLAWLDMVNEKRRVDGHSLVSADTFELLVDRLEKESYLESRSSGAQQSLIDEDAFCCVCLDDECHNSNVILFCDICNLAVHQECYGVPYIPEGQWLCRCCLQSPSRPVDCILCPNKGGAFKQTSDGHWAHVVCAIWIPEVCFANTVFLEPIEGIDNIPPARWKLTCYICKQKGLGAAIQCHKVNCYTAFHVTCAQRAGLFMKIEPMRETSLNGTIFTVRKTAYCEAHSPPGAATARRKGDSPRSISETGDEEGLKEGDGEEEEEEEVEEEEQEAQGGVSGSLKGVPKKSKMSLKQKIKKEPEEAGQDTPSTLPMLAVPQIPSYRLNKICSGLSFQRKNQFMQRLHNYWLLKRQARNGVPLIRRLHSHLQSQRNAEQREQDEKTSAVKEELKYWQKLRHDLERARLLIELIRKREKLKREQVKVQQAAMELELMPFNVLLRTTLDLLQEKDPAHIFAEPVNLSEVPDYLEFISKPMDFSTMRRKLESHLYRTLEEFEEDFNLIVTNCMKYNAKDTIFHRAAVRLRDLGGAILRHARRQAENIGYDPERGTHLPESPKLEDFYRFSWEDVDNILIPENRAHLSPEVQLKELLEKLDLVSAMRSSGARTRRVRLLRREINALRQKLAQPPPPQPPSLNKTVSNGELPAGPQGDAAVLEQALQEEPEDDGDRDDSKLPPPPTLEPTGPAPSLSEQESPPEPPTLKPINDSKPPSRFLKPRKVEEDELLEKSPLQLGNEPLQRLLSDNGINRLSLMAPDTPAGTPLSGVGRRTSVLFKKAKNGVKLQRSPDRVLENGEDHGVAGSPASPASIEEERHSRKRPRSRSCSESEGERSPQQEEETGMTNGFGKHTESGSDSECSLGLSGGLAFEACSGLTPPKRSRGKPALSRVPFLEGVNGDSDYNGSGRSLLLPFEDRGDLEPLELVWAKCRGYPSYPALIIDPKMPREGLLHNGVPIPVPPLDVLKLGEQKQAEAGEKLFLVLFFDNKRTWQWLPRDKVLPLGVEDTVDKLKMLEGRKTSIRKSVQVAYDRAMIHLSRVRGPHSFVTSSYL
Method: as §1

BRWD3(2) = molecular target: T8, BRWD3(2) (Homo sapiens, UniProt Q6RI45)
T8 construct: bromodomain 2
Method: as §1

EP300 = molecular target: T9, EP300 (Homo sapiens, UniProt Q09472)
T9 construct: bromodomain
Method: as §1

FALZ = molecular target: T10, FALZ (Homo sapiens, UniProt Q12830)
T10 construct: gene BPTF; bromodomain
Method: as §1

MLL = molecular target: T11, MLL (Homo sapiens, UniProt Q03164)
T11 construct: gene KMT2A; bromodomain
Method: as §1

PB1(6) = molecular target: T12, PB1(6) (Homo sapiens, UniProt Q86U86)
T12 construct: gene PBRM1; bromodomain 6
Method: as §1

PHIP(2) = molecular target: T13, PHIP(2) (Homo sapiens, UniProt Q8WWQ0)
T13 construct: bromodomain 2
Method: as §1

SMARCA2 = molecular target: T14, SMARCA2 (Homo sapiens, UniProt P51531)
T14 construct: bromodomain
T14 sequence (P51531 whole entry): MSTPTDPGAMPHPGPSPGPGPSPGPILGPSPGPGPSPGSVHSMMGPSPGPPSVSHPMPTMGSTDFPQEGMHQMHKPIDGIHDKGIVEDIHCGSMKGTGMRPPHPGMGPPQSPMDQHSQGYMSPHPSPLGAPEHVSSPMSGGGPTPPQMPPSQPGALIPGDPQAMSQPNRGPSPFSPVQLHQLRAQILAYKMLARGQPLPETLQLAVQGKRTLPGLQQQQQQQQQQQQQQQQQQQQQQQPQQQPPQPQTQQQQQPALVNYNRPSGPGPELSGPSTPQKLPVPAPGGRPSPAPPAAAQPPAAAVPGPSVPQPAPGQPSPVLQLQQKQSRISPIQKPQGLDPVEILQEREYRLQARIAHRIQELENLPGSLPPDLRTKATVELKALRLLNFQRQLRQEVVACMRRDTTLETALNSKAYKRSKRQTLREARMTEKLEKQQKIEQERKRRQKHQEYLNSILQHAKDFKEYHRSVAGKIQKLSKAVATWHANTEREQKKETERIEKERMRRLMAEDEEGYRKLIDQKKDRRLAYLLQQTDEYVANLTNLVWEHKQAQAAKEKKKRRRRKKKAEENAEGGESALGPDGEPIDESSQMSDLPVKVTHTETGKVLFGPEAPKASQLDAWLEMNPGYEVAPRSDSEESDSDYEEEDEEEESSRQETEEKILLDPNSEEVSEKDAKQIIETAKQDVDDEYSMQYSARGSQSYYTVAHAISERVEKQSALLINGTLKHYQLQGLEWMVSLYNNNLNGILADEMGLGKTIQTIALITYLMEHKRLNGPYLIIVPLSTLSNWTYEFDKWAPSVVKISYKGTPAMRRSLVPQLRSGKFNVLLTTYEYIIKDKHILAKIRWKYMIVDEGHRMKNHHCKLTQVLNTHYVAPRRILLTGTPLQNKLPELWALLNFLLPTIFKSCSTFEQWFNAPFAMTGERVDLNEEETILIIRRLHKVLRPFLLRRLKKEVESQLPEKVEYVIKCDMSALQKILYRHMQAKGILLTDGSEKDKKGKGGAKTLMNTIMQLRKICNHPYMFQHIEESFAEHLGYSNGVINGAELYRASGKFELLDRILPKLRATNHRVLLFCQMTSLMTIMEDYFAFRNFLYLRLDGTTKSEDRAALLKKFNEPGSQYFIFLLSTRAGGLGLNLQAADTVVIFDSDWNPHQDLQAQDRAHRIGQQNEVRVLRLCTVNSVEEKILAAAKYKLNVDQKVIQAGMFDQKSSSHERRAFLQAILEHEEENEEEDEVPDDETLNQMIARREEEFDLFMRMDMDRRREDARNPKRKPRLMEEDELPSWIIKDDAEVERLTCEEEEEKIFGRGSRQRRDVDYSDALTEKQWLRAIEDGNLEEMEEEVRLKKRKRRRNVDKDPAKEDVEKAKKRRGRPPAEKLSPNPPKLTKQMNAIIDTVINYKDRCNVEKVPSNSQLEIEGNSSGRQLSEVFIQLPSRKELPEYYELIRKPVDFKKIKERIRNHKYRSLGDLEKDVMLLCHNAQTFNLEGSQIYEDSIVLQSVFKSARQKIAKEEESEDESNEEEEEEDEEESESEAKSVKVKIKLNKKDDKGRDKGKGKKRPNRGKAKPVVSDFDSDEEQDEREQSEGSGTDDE
Method: as §1

SP140 = molecular target: T15, SP140 (Homo sapiens, UniProt Q13342)
T15 construct: bromodomain
T15 sequence (Q13342 whole entry): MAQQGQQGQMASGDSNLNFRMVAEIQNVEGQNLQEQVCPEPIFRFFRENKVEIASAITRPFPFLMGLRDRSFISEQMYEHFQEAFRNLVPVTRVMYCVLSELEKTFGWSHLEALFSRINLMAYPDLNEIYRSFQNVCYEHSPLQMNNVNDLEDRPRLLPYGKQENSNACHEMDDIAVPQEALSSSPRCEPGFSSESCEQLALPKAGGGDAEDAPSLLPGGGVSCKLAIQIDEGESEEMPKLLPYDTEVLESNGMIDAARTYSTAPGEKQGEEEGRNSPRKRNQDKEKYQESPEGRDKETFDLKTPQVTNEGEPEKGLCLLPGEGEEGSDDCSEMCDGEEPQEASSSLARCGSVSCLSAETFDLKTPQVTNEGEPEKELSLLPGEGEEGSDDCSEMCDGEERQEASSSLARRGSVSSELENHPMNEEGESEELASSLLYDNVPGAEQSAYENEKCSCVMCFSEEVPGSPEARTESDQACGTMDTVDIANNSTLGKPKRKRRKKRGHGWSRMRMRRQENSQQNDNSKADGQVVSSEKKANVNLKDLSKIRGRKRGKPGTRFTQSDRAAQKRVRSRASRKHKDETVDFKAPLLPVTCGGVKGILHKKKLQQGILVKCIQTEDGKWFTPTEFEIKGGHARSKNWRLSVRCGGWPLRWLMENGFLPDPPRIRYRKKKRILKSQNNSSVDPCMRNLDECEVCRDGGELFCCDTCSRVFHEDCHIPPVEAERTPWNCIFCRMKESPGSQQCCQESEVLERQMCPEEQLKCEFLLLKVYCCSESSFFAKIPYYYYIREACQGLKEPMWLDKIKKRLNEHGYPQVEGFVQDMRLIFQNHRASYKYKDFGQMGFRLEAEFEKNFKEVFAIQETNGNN
Method: as §1

TAF1(1) = molecular target: T16, TAF1(1) (Homo sapiens, UniProt P21675)
T16 construct: bromodomain 1
Method: as §1

TAF1(2) = molecular target: T17, TAF1(2) (Homo sapiens, UniProt P21675)
T17 construct: bromodomain 2
Method: as §1

TAF1L(1) = molecular target: T18, TAF1L(1) (Homo sapiens, UniProt Q8IZX4)
T18 construct: bromodomain 1
Method: as §1

TAF1L(2) = molecular target: T19, TAF1L(2) (Homo sapiens, UniProt Q8IZX4)
T19 construct: bromodomain 2
Method: as §1

TRIM28 = molecular target: T20, TRIM28 (Homo sapiens, UniProt Q13263)
T20 construct: bromodomain
T20 sequence (Q13263 whole entry): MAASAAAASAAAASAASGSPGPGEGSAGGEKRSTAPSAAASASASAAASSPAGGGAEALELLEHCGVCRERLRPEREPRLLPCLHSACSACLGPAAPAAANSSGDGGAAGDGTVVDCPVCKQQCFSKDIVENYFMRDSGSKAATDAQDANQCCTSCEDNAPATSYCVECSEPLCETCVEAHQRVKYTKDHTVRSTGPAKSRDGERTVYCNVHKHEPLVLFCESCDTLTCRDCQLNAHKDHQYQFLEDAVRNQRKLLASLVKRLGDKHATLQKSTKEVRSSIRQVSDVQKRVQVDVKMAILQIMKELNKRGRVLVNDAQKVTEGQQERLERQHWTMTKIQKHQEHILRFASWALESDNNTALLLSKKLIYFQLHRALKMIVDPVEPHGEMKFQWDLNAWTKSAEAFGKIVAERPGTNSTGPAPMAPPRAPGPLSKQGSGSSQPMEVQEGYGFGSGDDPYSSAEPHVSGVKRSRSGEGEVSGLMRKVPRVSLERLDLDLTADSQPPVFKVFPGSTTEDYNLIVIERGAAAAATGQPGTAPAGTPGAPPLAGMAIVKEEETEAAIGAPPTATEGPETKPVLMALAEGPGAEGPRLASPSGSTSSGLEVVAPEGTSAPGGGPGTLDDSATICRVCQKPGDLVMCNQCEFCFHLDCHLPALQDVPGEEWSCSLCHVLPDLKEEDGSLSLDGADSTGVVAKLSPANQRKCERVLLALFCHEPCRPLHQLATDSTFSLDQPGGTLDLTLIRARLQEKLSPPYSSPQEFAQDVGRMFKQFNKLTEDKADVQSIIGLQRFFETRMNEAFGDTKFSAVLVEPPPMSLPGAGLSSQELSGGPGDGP
Method: as §1

ΔTm at 10 µM (ATAD2): 0.13 °C | ΔTm at 10 µM (BAZ1A): 1.2 °C | ΔTm at 10 µM (BAZ1B): 1.67 °C | ΔTm at 10 µM (BAZ2A): 0.32 °C | ΔTm at 10 µM (BAZ2B): 0.38 °C | ΔTm at 10 µM [1]: 10.1 °C | ΔTm at 10 µM (BRPF3): 0.95 °C | ΔTm at 10 µM (BRWD3(2)): 0.74 °C | ΔTm at 10 µM (EP300): 2.49 °C | ΔTm at 10 µM (FALZ): 0.22 °C | ΔTm at 10 µM (MLL): 0.49 °C | ΔTm at 10 µM (PB1(6)): 0.26 °C | ΔTm at 10 µM (PHIP(2)): 0.22 °C | ΔTm at 10 µM (SMARCA2): -0.18 °C | ΔTm at 10 µM (SP140): 0.87 °C | ΔTm at 10 µM (TAF1(1)): 0.09 °C | ΔTm at 10 µM (TAF1(2)): 0.19 °C | ΔTm at 10 µM (TAF1L(1)): 0.31 °C | ΔTm at 10 µM (TAF1L(2)): 0.51 °C | ΔTm at 10 µM (TRIM28): -0.11 °C
Structure (SMILES): Cc1noc(C)c1-c1ccc2c(c1)[C@H](c1ccccc1)N(C)C2=O [PNZ5]

Source: PMC5190074, “BET inhibition as a new strategy for the treatment of gastric cancer” (Oncotarget, 2016)
